# Reference: ChEMBL document CHEMBL5500331, “Discovery of novel peptide-dehydroepiandrosterone hybrids inducing endoplasmic reticulum stress with effective in vitro and in vivo anti-melanoma activities” (Eur J Med Chem, 2024)
# Active and inactive are the calls of the source. The calls are words filed in the database; no cut-off is given here.
# Key:
# B16 [1] = test: Antiproliferative activity against mouse B16 cells measured after 48 hrs by MTT assay; assay type: functional, cell-based; conditions: B16, 48 h
# [2] = Toxicity in Kunming mouse assessed as effect on body weight at 60 mg/kg, IG measured after 21 days; assay type: organism-based; conditions: in vivo, po, 504 h, time 21 day
# B16 [3] = test: Anti-melanoma activity against mouse B16 cells xenografted in Kunming mouse model assessed as inhibition of tumor weight at 60 mg/kg, IG measured every two days for 27 days relative to control; assay type: functional; design: scale not given: the % may be the effect or the level left; conditions: time 27 day
# [4] = Antiproliferative activity against human Prostate tumor cell line at 25 uM measured after 48 hrs by MTT assay relative to control; assay type: functional
# DU-145 = test: Antiproliferative activity against human DU-145 cells at 25 uM measured after 48 hrs by MTT assay; assay type: functional, cell-based
# B16 [5] = test: Anti-melanoma activity against mouse B16 cells xenografted in Kunming mouse model assessed as suppression of tumor weight at 60 mg/kg, IG measured every two days for 27 days (reference value: 10.61+/-1.05g); assay type: functional; conditions: time 27 day
# PC-3 = test: Antiproliferative activity against human PC-3 cells at 25 uM measured after 48 hrs by MTT assay; assay type: functional, cell-based
# B16 [6] = test: Anti-melanoma activity against mouse B16 cells xenografted in Kunming mouse model assessed as reduction in tumor volume at 60 mg/kg, IG measured after 5 days; assay type: functional, organism-based; conditions: time 5.0 day
# B16 [7] = test: Anti-melanoma activity against mouse B16 cells xenografted in Kunming mouse model assessed as reduction in tumor volume at 60 mg/kg, IG measured after 7 to 27 days; assay type: functional, organism-based; conditions: time 7-27 day
# B16 [8] = test: Upregulation of […] expression in mouse B16 cells at 9.70 uM measured after 48 hrs by Western blot analysis; assay type: functional, cell-based; conditions: dose 9.7 µM
# B16 [9] = test: Upregulation of caspase 8 expression in mouse B16 cells at 9.70 uM measured after 48 hrs by Western blot analysis; assay type: functional, cell-based; conditions: dose 9.7 µM
# B16 [10] = test: Upregulation of caspase 3 expression in mouse B16 cells at 9.70 uM measured after 48 hrs by Western blot analysis; assay type: functional, cell-based; conditions: dose 9.7 µM
# B16 [11] = test: Effect on Bcl-2 expression in mouse B16 cells at 9.70 uM measured after 48 hrs by Western blot analysis; assay type: functional, cell-based; conditions: dose 9.7 µM
# BGC-823 = test: Antiproliferative activity against human BGC-823 cells at 25 uM measured after 48 hrs by MTT assay relative to control; assay type: functional
# B16 [12] = test: Antiproliferative activity against mouse B16 cells at 25 uM measured after 48 hrs by MTT assay relative to control; assay type: functional
# HCT-116 = test: Antiproliferative activity against human HCT-116 cells at 25 uM measured after 48 hrs by MTT assay relative to control; assay type: functional
# [13] = Inhibition of cell migration in mouse B16 cells at 9.70 uM measured after 24 hrs by crystal violet staining based analysis relative to control; assay type: functional
# [14] = Inhibition of cell migration in mouse B16 cells at 9.70 uM measured after 48 hrs by scratch-wound healing assay relative to control; assay type: functional
# [15] = Induction of apoptosis in mouse B16 cells at 19.4 uM measured after 48 hrs by annexin-V/PI double staining based flow cytometry analysis relative to control; assay type: functional
# B16 [16] = test: Anti-melanoma activity against mouse B16 cells xenografted in Kunming mouse model assessed as decrease in bcl-2 level at 60 mg/kg, IG measured after 27 days by IHC staining based analysis; assay type: functional, organism-based; conditions: time 27.0 day
# B16 [17] = test: Induction of endoplasmic reticulum (ER) stress in mouse B16 cells assessed as effect on GRP78 expression at 9.70 uM measured after 48 hrs by Western blot analysis; assay type: functional, cell-based; conditions: dose 9.7 µM
# [18] = Induction of apoptosis in mouse B16 cells assessed as necrosis at 19.4 uM measured after 48 hrs by annexin-V/PI double staining based flow cytometry analysis relative to control; assay type: functional
# B16 [19] = test: Induction of endoplasmic reticulum (ER) stress in mouse B16 cells assessed as decrease in alix expression at 9.70 uM measured after 48 hrs by Western blot analysis; assay type: functional, cell-based; conditions: dose 9.7 µM
# B16 [20] = test: Anti-melanoma activity against mouse B16 cells xenografted in Kunming mouse model assessed as reduction in tumor volume at 60 mg/kg, IG measured upto 27 days; assay type: functional, organism-based; conditions: time <= 27.0 day
# B16 [21] = test: Anti-melanoma activity against mouse B16 cells xenografted in Kunming mouse model assessed as increase in caspase 8 expression at 60 mg/kg, IG measured after 27 days by IHC staining based analysis; assay type: functional, organism-based; conditions: time 27.0 day
# B16 [22] = test: Anti-melanoma activity against mouse B16 cells xenografted in Kunming mouse model assessed as increase in caspase 3 expression at 60 mg/kg, IG measured after 27 days by IHC staining based analysis; assay type: functional, organism-based; conditions: time 27.0 day
# B16 [23] = test: Downregulation of Bcl-2 expression in mouse B16 cells at 9.70 uM measured after 48 hrs by Western blot analysis; assay type: functional, cell-based; conditions: dose 9.7 µM
# [24] = Drug metabolism in mouse plasma assessed as abiraterone Tmax at 20 mg/kg, IG; assay type: ADME, organism-based; conditions: in vivo, po
# [25] = Drug metabolism in mouse plasma assessed as abiraterone Cmax at 20 mg/kg, IG; assay type: ADME, organism-based; conditions: in vivo, po
# [26] = Inhibition of cell invasion in mouse B16 cells at 9.70 uM measured after 24 hrs by crystal violet staining based analysis relative to control; assay type: functional
# B16 [27] = test: Induction of endoplasmic reticulum (ER) stress in mouse B16 cells assessed as effect on CHOP expression at 9.70 uM measured after 48 hrs by Western blot analysis; assay type: functional, cell-based; conditions: dose 9.7 µM
# B16 [28] = test: Anti-melanoma activity against mouse B16 cells xenografted in Kunming mouse model assessed as increase in bax expression at 60 mg/kg, IG measured after 27 days by IHC staining based analysis; assay type: functional, organism-based; conditions: time 27.0 day
compound,measurement,setting,value
CC(C)[C@H](N)C(=O)N[C@H](C(=O)O[C@H]1CC[C@@]2(C)C(=CC[C@@H]3[C@@H]2CC[C@]2(C)C(O)=CC[C@@H]32)C1)C(C)C,IC50,B16 [1],23.6 µM
CC(C)C[C@H](N)C(=O)O[C@H]1CC[C@@]2(C)C(=CC[C@@H]3[C@@H]2CC[C@]2(C)C(O)=CC[C@@H]32)C1,IC50,B16 [1],> 1000 µM
C[C@]12CC[C@H](OC(=O)[C@@H]3CCCN3C(=O)CN)CC1=CC[C@@H]1[C@@H]2CC[C@]2(C)C(c3cccnc3)=CC[C@@H]12,IC50,B16 [1],> 1000 µM
CC(C)[C@H](NC(=O)CN)C(=O)O[C@H]1CC[C@@]2(C)C(=CC[C@@H]3[C@@H]2CC[C@]2(C)C(O)=CC[C@@H]32)C1,IC50,B16 [1],16.5 µM
C[C@]12CC[C@H](OC(=O)CNC(=O)CN)CC1=CC[C@@H]1[C@@H]2CC[C@]2(C)C(c3cccnc3)=CC[C@@H]12,IC50,B16 [1],177 µM
C[C@]12CC[C@H](O)CC1=CC[C@@H]1[C@@H]2CC[C@]2(C)C(c3ccc(Cl)nc3)=CC[C@@H]12,IC50,B16 [1],113 µM
C[C@]12CC[C@H](OC(=O)CN)CC1=CC[C@@H]1[C@@H]2CC[C@]2(C)C(c3cccnc3)=CC[C@@H]12,IC50,B16 [1],221 µM
CC(C)[C@H](N)C(=O)NCC(=O)O[C@H]1CC[C@@]2(C)C(=CC[C@@H]3[C@@H]2CC[C@]2(C)C(c4cccnc4)=CC[C@@H]32)C1,IC50,B16 [1],13.4 µM
C[C@]12CC[C@H](O)CC1=CC[C@@H]1[C@@H]2CC[C@]2(C)C(c3cccnc3)=CC[C@@H]12 [ABIRATERONE],Activity,[2],Toxic
same,Activity,B16 [3],17.93%
same,Activity,[4],69.3%
same,Activity,DU-145,Active
same,Activity,B16 [5],8.7 g
same,Activity,PC-3,Active
same,IC50,B16 [1],106 µM
same,Activity,B16 [6],Active
same,Activity,B16 [7],inactive
CC(=O)O[C@H]1CC[C@@]2(C)C(=CC[C@@H]3[C@@H]2CC[C@]2(C)C(c4ccc(Cl)nc4)=CC[C@@H]32)C1,IC50,B16 [1],> 1000 µM
C[C@]12CC[C@H](O)CC1=CC[C@@H]1[C@@H]2CC[C@]2(C)C(c3ccc(F)nc3)=CC[C@@H]12,IC50,B16 [1],56.4 µM
CC(C)[C@H](NC(=O)CN)C(=O)O[C@H]1CC[C@@]2(C)C(=CC[C@@H]3[C@@H]2CC[C@]2(C)C(c4ccc(F)nc4)=CC[C@@H]32)C1,IC50,B16 [1],3.16 µM
COc1ccc(C2=CC[C@H]3[C@@H]4CC=C5C[C@@H](OC(C)=O)CC[C@]5(C)[C@H]4CC[C@]23C)cn1,IC50,B16 [1],> 1000 µM
CC(C)C[C@H](NC(=O)CN)C(=O)O[C@H]1CC[C@@]2(C)C(=CC[C@@H]3[C@@H]2CC[C@]2(C)C(c4cccnc4)=CC[C@@H]32)C1,Activity,B16 [8],Active
same,Activity,B16 [9],Active
same,IC50,B16 [1],30.5 µM
same,Activity,B16 [10],Active
same,Activity,B16 [11],inactive
C[C@]12CC[C@H](OC(=O)CN)CC1=CC[C@@H]1[C@@H]2CC[C@]2(C)C(O)=CC[C@@H]12,IC50,B16 [1],71.6 µM
CC(C)[C@H](N)C(=O)N[C@@H](C)C(=O)O[C@H]1CC[C@@]2(C)C(=CC[C@@H]3[C@@H]2CC[C@]2(C)C(O)=CC[C@@H]32)C1,Activity,BGC-823,81.6%
same,Activity,B16 [12],83.7%
same,Activity,HCT-116,66%
CC(C)[C@H](NC(=O)CN)C(=O)O[C@H]1CC[C@@]2(C)C(=CC[C@@H]3[C@@H]2CC[C@]2(C)C(c4cnccc4Cl)=CC[C@@H]32)C1,IC50,B16 [1],3.78 µM
CC(=O)O[C@H]1CC[C@@]2(C)C(=CC[C@@H]3[C@@H]2CC[C@]2(C)C(c4cccnc4)=CC[C@@H]32)C1 [ABIRATERONE ACETATE],inhibition at 9.7 µM,[13],51%
same,Activity,[2],Toxic
same,Activity,B16 [3],76.42%
same,inhibition at 9.7 µM,[14],64%
same,Activity,[15],9%
same,Activity,DU-145,Active
same,Activity,B16 [16],Active
same,Activity,B16 [8],Active
same,Activity,B16 [17],inactive
same,Activity,[18],49.8%
same,Activity,B16 [5],2.5 g
same,Activity,B16 [9],Active
same,Activity,PC-3,Active
same,IC50,B16 [1],28.7 µM
same,Activity,B16 [19],Active
same,Activity,B16 [10],inactive
same,Activity,B16 [20],inactive
same,Activity,B16 [21],Active
same,Activity,B16 [22],Active
same,Activity,B16 [23],Active
same,Tmax,[24],4 h
same,Activity,B16 [6],Active
same,Activity,B16 [7],inactive
same,Cmax,[25],681 ng/mL
same,inhibition at 9.7 µM,[26],61%
same,Activity,B16 [27],inactive
same,Activity,B16 [28],Active
